Results reported in patent USRE49361E1, “Fused bicyclic (hetero)aromatic compounds useful for the treatment of cancers” (JAZZ PHARMACEUTICALS IRELAND LIMITED, priority 2014, dated 2023).

Each compound was assayed on C-RAF-mediated ERK activation in B-RAF^WT IPC-298 cells (NRAS^Q61L) (assay: IPC-298 AlphaScreen SureFire pERK1/2 cellular assay). Conditions: 1 hour treatment, in comparison to Dabrafenib.
Assay type: cell-based, human
Description: On day 2, compounds at a concentration of 6 mM are serially diluted 5 μl into 45 μl of 100% dimethyl sulfoxide (DMSO) six times in 96-well plates for a total of 7 dilution points. […] The cells are treated for 1 hour at 37° C. in 5% CO2. The treatment is then removed and the cells are incubated with lysis buffer containing phosphatase inhibitors for 10 minutes at room temperature with gentle shaking. […] The biotinylated antibody binds to the streptavidin-coated donor beads and the phopsho-ERK1/2 antibody binds to the acceptor beads. Plates are read on an EnVision reader (Perkin Elmer) and excitation of the beads at 680 nm with a laser induces the release of singlet oxygen molecules from the donor beads that triggers energy transfer to the acceptor beads in close proximity, producing a signal that can be measured at 570 nm. Both antibodies bind to phosphorylated ERK proteins, bringing the donor and acceptor beads into close proximity.
All data are analysed using the GraphPad Prism software package. Activation of ERK phosphorylation is expressed as a percentage of activation relative to the reference compound, Dabrafenib.

SMILES | paradoxical activation of MAPK pathway (ERK phosphorylation) relative to Dabrafenib
O=C1CCc2c(Oc3ccc4c(c3)CC(c3nc(-c5ccncc5)c[nH]3)CO4)ccnc2N1 (stereo not drawn) [Example 4, 5-[3-[4-(4-pyridyl)-1H-imidazol-2-yl]chroman-6-yl]oxy-3,4-dihydro-1H-1,8-naphthyridin-2-one] | reduced paradoxical activity
O=C1CCc2c(Oc3ccc4c(c3)CC(c3nc(-c5ccsc5)c[nH]3)CO4)ccnc2N1 (stereo not drawn) [Example 6, 5-[3-[4-(3-thienyl)-1H-imidazol-2-yl]chroman-6-yl]oxy-3,4-dihydro-1H-1,8-naphthyridin-2-one] | reduced paradoxical activity
O=C1CCc2c(Oc3ccc4c(c3)CC(c3nc(-c5cccs5)c[nH]3)CO4)ccnc2N1 (stereo not drawn) [Example 7, 5-[3-[4-(2-thienyl)-1H-imidazol-2-yl]chroman-6-yl]oxy-3,4-dihydro-1H-1,8-naphthyridin-2-one] | reduced paradoxical activity
O=C1CCc2c(Oc3ccc4c(c3)CC(c3cc(-c5ccccc5)[nH]n3)CO4)ccnc2N1 (stereo not drawn) [Example 18, 5-[3-(5-phenyl-1H-pyrazol-3-yl)chroman-6-yl]oxy-3,4-dihydro-1H-1,8-naphthyridin-2-one] | reduced paradoxical activity
O=C1CCc2c(Oc3ccc4c(c3)O[C@@H](c3nc(-c5ccccc5)c[nH]3)CO4)ccnc2N1 [Example 19, 5-[[(3S)-3-(4-phenyl-1H-imidazol-2-yl)-2,3-dihydro-1,4-benzodioxin-6-yl]oxy]-3,4-dihydro-1H-1,8-naphthyridin-2-one] | reduced paradoxical activity
O=C1CCc2c(Oc3ccc4c(c3)O[C@H](c3nc(-c5ccccc5)c[nH]3)CO4)ccnc2N1 [Example 20, 5-[[(3R)-3-(4-phenyl-1H-imidazol-2-yl)-2,3-dihydro-1,4-benzodioxin-6-yl]oxy]-3,4-dihydro-1H-1,8-naphthyridin-2-one] | reduced paradoxical activity
